Results from patent US11530223B2, “Spiro-lactam NMDA receptor modulators and uses thereof” (Aptinyx Inc., priority 2016, dated 2022).
Where two headings read alike, the source gives them in different places.

Tests used:
NMDAR2A = target: T1, NMDAR2A (Homo sapiens, UniProt Q12879); experiment: [3H]MK-801 binding in NMDAR2A expressing HEK cell membranes; type: biochemical; set-up: key to B: log EC50: 0=−; ≥1×10^−9 M (e.g., −8)=+; <1×10^−9 M (e.g., −10)=++; conditions: 50 μM glutamate; for EC50: read-out: B: log EC50 (converted); for Emax: read-out: A: % maximal [3H]MK-801 binding relative to 1 mM glycine
T1 construct: expressed in transfected cells; host or cells: HEK cells (membrane extract)
Experimental: (§1) Assays were conducted as described by Moskal et al., “GLYX-13: a monoclonal antibody-derived peptide that acts as an N-methyl-D-aspartate receptor modulator,” Neuropharmacology, 49, 1077-87, 2005. These studies were designed to determine if the test compounds act to facilitate NMDAR activation in NMDAR2A, NMDAR2B, NMDAR2C or NMDAR2D expressing HEK cell membranes as measured by increases in [^3H]MK-801 binding.
(§2) In the assay, 300 μg of NMDAR expressing HEK cell membrane extract protein was preincubated for 15 minutes at 25° C. in the presence of saturating concentrations of glutamate (50 μM) and varying concentrations of test compound (1×10^−15M−1×10^−7M), or 1 mM glycine. Following the addition of 0.3 μCi of [^3H]MK-801 (22.5 Ci/mmol), reactions were again incubated for 15 minutes at 25° C. (nonequilibrium conditions). Bound and free [^3H]MK-801 were separated via rapid filtration using a Brandel apparatus.
(§3) In analyzing the data, the DPM (disintegrations per minute) of [^3H]MK-801 remaining on the filter were measured for each concentration of test compound or for 1 mM glycine. The DPM values for each concentration of a ligand (N=2) were averaged. The baseline value was determined from the best fit curve of the DPM values modeled using the GraphPad program and the log(agonist) vs. response (three parameters) algorithm was then subtracted from all points in the dataset. The % maximal [^3H]MK-801 binding was then calculated relative to that of 1 mM glycine: all baseline subtracted DPM values were divided by the average value for 1 mM glycine. The EC50 and % maximal activity were then obtained from the best fit curve of the % maximal [^3H]MK-801 binding data modelled using the GraphPad program and the log(agonist) vs. response (three parameters) algorithm.
(§4) The tables below summarize the results for the wild type […] NMDAR2A, NMDAR2B, NMDAR2C, and NMDAR2D, and whether the compound is not an agonist (−), is an agonist (+), or is a strong agonist (++), where column A is based on the % maximal [^3H]MK-801 binding relative to 1 mM glycine (−=0; <100%=+; and >100%=++); and column B is based on log EC50 values (0=−; ≥1×10^−9 M (e.g., −8)=+; and <1×10^−9 M (e.g., −10)=++).

NMDAR2B = target: T2, NMDAR2B (Homo sapiens, UniProt Q13224); experiment: [3H]MK-801 binding in NMDAR2B expressing HEK cell membranes; type: biochemical; set-up: key to B: log EC50: 0=−; ≥1×10^−9 M (e.g., −8)=+; <1×10^−9 M (e.g., −10)=++; conditions: 50 μM glutamate; for Emax: read-out: A: % maximal [3H]MK-801 binding relative to 1 mM glycine; for EC50: read-out: B: log EC50 (converted)
T2 construct: expressed in transfected cells; host or cells: HEK cells (membrane extract)
Experimental: as §1, §2, §3, §4

IV pharmacokinetics = type: in vivo; conditions: Sprague Dawley rats; for C0: normal saline (first four compounds: 5% NMP, 5% Solutol HS, 90% normal saline); for Vd: read-out: Vss
Experimental: Sprague Dawley rats were dosed intravenously using a normal saline formulation containing 2 mg/kg of the compounds identified in the below table (except for the first four compounds that were delivered in 5% NMP, 5% Solutol® HS and 90% normal saline formulation). The table below summarizes the results of the IV pharmacokinetics.

[1] = oral pharmacokinetics (plasma, brain, CSF); type: in vivo; conditions: Sprague Dawley rats, per os 10 mg/kg; for Tmax: normal saline (first four compounds: 5% NMP, 5% Solutol HS, 90% normal saline)
Experimental: Plasma, brain, and CSF samples were analyzed at various time points over a 24 hour period.

Sprague Dawley rats = experiment: Porsolt forced swim test; type: in vivo; conditions: 0.1 mg/kg; for % reduction in float time: relative to vehicle group
Experimental: A non-clinical in vivo pharmacology study (Porsolt assay) was performed to measure antidepressant-like effects. A negative control (0.5% sodium carboxymethyl cellulose in 0.9% sterile saline vehicle) and a positive control (fluoxetine) are shown for comparison against test compound. The study allowed for the evaluation of the effects of each compound on the Porsolt forced swim test as assessed by the rats' response (reduced floating time) during a 5-minute swimming test.
Male 2-3 month old Sprague Dawley rats were used (Harlan, Indianapolis, Ind.). Rats were housed in Lucite cages with aspen wood chip bedding, maintained on a 12:12 light:dark cycle (lights on at 5 AM), and given ad libitum access to Purina lab chow (USA) and tap water throughout the study.
The Porsolt forced swim test adapted for use in rats was performed as described by Burgdorf et al., (The long-lasting antidepressant effects of rapastinel (GLYX-13) are associated with a metaplasticity process in the medial prefrontal cortex and hippocampus. Neuroscience 308:202-211, 2015). Animals were placed in a 46 cm tall×20 cm in diameter clear glass tube filled to 30 cm with tap water (23±1° C.) for 15 min on the first day (habituation) and 5 min on the subsequent test day. Positive control fluoxetine was dosed 3 times (24 h, 5 h and 1 h) prior to testing. Animals were tested 1 h or 24 h post-dosing with the test compounds or vehicle. Animals received a 15 min habituation session 1 day before the 5 min test. A subset of compounds tested at 1 h post-dosing were retested at 1 wk post-dosing in the same sets of animals. Water was changed after every other animal. Animals were videotaped, and floating time as defined as the minimal amount of effort required to keep the animals head above water was scored offline by a blinded experimenter with high inter-rater reliability (Pearson's r>0.9).
Each compound tested at dose level shown. Significance vs. vehicle group for each experiment is marked. […] A compound marked “No” was not statistically significant from vehicle. Data was averaged for test compound and vehicle groups (N approximately 8 per group) and the percent reduction in floating for group treated with test compound relative to group treated with vehicle is shown.

NMDAR2D = target: T3, NMDAR2D (Homo sapiens, UniProt O15399); experiment: [3H]MK-801 binding in NMDAR2D expressing HEK cell membranes; type: biochemical; set-up: key to B: log EC50: 0=−; ≥1×10^−9 M (e.g., −8)=+; <1×10^−9 M (e.g., −10)=++
T3 construct: expressed in transfected cells; host or cells: HEK cells (membrane extract)
Experimental: as §1, §2, §3, §4

[2] = Sprague Dawley, rat, in vivo, iv, 2 mg/kg
[3] = Sprague Dawley, rat, in vivo, iv, 2 mg/kg, read-out: C0
[4] = Sprague Dawley, rat, plasma, po, 10 mg/kg
[5] = Sprague Dawley, rat, plasma, po, 10 mg/kg, plasma, read-out: Cmax
[6] = Sprague Dawley, rat, plasma, po, 10 mg/kg, read-out: Tmax

T1 sequence (Q12879 23-1464, species assumed, other chains not shown): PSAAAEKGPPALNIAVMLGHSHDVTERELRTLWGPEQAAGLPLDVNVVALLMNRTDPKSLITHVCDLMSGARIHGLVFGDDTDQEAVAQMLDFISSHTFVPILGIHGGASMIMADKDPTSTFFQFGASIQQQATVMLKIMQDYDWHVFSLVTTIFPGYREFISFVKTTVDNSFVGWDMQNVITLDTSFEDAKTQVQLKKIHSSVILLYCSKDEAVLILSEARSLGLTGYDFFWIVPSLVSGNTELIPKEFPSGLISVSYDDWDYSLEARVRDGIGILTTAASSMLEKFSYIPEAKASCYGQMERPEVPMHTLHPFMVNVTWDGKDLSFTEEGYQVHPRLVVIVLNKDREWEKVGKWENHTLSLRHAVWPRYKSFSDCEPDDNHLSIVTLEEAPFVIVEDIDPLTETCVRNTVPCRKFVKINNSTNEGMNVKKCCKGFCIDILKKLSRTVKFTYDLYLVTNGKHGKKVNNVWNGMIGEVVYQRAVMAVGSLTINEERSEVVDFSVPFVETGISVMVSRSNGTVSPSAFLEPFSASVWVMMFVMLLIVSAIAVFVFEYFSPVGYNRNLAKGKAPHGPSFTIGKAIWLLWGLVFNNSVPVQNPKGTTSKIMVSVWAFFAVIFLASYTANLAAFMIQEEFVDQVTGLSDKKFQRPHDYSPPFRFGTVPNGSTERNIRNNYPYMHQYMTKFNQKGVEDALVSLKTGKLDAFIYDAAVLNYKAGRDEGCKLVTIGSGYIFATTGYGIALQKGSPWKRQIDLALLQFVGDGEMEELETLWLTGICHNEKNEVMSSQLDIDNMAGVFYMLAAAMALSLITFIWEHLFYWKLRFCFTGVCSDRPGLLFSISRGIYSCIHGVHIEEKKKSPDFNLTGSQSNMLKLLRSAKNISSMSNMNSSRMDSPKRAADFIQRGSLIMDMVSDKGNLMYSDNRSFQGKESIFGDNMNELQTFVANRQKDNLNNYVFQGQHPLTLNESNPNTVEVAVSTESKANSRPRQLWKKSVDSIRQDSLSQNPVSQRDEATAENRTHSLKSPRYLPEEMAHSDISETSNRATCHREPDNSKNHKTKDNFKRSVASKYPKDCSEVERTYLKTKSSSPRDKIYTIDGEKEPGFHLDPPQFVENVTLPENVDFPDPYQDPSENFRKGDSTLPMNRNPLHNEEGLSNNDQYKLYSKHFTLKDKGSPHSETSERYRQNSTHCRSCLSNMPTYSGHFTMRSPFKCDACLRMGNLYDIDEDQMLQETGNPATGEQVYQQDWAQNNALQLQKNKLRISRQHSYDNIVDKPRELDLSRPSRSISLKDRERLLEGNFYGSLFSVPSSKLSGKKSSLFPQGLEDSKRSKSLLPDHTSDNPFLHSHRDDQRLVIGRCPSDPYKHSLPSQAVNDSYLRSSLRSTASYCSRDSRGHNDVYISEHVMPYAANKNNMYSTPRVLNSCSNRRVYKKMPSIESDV
T2 sequence (Q13224 27-1484, species assumed, other chains not shown): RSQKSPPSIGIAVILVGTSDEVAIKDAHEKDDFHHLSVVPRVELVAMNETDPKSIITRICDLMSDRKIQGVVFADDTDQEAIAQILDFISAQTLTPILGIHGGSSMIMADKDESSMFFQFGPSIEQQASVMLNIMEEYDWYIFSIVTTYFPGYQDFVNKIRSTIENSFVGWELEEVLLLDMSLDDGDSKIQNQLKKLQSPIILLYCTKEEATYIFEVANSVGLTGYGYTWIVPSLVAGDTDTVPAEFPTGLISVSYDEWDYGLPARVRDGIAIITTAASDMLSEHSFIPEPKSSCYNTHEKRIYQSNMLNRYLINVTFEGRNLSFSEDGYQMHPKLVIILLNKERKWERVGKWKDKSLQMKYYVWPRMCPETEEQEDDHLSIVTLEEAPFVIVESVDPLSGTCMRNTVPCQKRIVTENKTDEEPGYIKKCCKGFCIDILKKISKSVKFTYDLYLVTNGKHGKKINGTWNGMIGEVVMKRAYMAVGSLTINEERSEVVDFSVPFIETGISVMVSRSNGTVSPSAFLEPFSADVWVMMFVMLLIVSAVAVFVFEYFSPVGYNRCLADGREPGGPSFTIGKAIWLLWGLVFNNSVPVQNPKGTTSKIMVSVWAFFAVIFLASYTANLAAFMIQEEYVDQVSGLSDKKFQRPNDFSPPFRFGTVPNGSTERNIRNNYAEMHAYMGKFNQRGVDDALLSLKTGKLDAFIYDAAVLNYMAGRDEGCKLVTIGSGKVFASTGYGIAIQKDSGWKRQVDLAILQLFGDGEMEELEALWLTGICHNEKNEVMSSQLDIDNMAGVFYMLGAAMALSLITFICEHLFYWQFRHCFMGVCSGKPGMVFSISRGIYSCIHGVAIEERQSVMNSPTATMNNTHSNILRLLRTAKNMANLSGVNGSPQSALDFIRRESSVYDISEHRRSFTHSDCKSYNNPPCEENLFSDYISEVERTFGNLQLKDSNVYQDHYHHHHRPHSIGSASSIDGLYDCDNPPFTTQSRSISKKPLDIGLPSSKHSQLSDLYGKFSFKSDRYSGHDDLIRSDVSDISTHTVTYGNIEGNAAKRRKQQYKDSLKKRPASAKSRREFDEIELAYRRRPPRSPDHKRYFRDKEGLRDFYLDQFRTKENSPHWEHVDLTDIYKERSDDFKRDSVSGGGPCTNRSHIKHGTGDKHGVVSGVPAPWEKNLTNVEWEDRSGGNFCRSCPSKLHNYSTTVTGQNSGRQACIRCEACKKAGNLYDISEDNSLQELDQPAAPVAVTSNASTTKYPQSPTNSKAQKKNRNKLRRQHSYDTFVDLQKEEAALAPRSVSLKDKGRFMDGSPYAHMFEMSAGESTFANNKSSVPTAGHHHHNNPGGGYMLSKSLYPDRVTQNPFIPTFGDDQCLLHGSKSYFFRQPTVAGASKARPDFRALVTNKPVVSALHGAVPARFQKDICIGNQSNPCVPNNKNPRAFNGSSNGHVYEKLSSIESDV
T3 sequence (O15399 28-1336, species assumed, other chains not shown): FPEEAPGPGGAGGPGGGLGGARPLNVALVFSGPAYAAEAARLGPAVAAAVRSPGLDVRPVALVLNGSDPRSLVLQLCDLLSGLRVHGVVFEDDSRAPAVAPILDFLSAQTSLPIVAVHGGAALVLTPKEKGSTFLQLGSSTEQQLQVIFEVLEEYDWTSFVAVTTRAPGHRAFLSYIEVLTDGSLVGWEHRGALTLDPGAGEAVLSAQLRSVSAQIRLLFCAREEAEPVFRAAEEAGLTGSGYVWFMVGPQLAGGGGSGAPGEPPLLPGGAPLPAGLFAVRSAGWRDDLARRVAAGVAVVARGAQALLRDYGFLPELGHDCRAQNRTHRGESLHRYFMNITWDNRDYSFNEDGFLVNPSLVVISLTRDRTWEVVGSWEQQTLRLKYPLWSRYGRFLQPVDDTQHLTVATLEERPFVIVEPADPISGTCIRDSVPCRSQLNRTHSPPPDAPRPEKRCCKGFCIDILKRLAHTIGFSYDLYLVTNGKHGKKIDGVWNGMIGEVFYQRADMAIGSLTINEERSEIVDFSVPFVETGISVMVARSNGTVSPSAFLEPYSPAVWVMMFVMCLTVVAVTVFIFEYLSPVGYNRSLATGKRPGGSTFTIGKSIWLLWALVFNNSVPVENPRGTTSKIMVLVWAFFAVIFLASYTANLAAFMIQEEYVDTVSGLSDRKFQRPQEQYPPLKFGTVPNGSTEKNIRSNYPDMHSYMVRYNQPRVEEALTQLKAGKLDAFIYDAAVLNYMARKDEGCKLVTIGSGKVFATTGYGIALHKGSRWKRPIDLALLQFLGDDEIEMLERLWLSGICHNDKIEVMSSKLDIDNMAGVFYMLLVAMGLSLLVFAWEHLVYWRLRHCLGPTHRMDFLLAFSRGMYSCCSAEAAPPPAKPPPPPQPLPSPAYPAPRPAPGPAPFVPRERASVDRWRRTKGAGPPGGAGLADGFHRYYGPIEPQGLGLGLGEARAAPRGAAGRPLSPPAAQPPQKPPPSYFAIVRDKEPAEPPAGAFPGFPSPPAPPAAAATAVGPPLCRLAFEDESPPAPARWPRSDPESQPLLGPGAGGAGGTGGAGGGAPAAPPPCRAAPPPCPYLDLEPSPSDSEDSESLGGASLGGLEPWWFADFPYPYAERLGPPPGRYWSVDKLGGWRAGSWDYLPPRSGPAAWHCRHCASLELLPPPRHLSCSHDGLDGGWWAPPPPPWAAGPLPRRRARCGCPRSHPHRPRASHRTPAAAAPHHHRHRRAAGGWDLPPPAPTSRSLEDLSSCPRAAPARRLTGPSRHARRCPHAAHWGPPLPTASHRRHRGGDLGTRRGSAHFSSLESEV

SMILES: CC(=O)N1CCCC12CCNC2=O (stereo not drawn) [RZ-404]
- A: % maximal [3H]MK-801 binding relative to 1 mM glycine (NMDAR2A): + (<100%=+)
- EC50 (NMDAR2A): < 1 nM
- A: % maximal [3H]MK-801 binding relative to 1 mM glycine (NMDAR2B): − (−=0)
- B: log EC50 (NMDAR2B): −

SMILES: CC(C)(C)OC(=O)N1CCC2(CCNC2=O)CC1 [RG-619]
- B: log EC50 (NMDAR2A): −
- Emax (NMDAR2A): 0%
- B: log EC50 (NMDAR2B): −
- Emax (NMDAR2B): 0%

SMILES: CC(C)C(=O)N1CCC2(CCNC2=O)CC1 [RG-623]
- B: log EC50 (NMDAR2A): −
- Emax (NMDAR2A): 0%
- Emax (NMDAR2B): < 100%
- EC50 (NMDAR2B): < 1 nM
- AUC(0-t) (IV pharmacokinetics; [2]): 10500 ng·h/mL
- clearance (IV pharmacokinetics; [2]): 3.18 mL/min/kg
- half-life (IV pharmacokinetics; [2]): 239 min
- C0 (IV pharmacokinetics; [3]): 4130 ng/mL
- Vd (IV pharmacokinetics; [2]): 0.56 L/kg
- CSF Cmax [1]: 4727 ng/mL
- Brain Cmax [1]: 4317 ng/mL
- AUC(0-t) [1, 4]: 42600 ng·h/mL
- bioavailability [1, 4]: 81%
- Cmax [1, 5]: 10900 ng/mL
- Tmax ([1]; rat, plasma, po, read-out: Tmax): 25.2 min
- Significance vs. vehicle (Sprague Dawley rats; 1 h post-dose, floating time in 5 min test): Yes (statistically significant (p<=0.05) from vehicle at dose level shown)
- % reduction in float time (Sprague Dawley rats; 1 h post-dose): 60.0%
- Significance vs. vehicle (Sprague Dawley rats; 24 h post-dose): Yes (statistically significant (p<=0.05) from vehicle at dose level shown)
- % reduction in float time (Sprague Dawley rats; 24 h post-dose): 52.9%

SMILES: CC(C)(C)OC(=O)N1CCCCC12CCNC2=O (stereo not drawn) [RG-606]
- A: % maximal [3H]MK-801 binding relative to 1 mM glycine (NMDAR2A): − (−=0)
- B: log EC50 (NMDAR2A): −
- A: % maximal [3H]MK-801 binding relative to 1 mM glycine (NMDAR2B): + (<100%=+)
- EC50 (NMDAR2B): < 1 nM
- A: % maximal [3H]MK-801 binding relative to 1 mM glycine (NMDAR2D; second part of table (r25-r35), c3, taken as NMDAR2D): − (−=0)
- B: log EC50 (NMDAR2D; second part of table, c4, taken as NMDAR2D): −
- AUClast (IV pharmacokinetics; intravenous 2 mg/kg): 804 ng·h/mL
- Cl (IV pharmacokinetics; intravenous 2 mg/kg): 41.29 mL/min/kg
- T1/2 (IV pharmacokinetics; intravenous 2 mg/kg): 20.4 min
- Vss (IV pharmacokinetics; intravenous 2 mg/kg): 0.91 L/kg
- C0 (IV pharmacokinetics; intravenous 2 mg/kg): 2303 ng/mL
- % F [1]: 48%
- AUClast [1]: 1933 ng·h/mL
- CSF Cmax [1]: 1077 ng/mL
- Brain Cmax [1]: 612 ng/mL
- Tmax [1]: 15 min
- Cmax ([1]; plasma): 2812 ng/mL

SMILES: O=C1NCCC12CCCN2 (stereo not drawn) [RX-1, 1,7-diazaspiro[4.4]nonan-6-one]
- B: log EC50 (NMDAR2A): −
- Emax (NMDAR2A): 0%
- B: log EC50 (NMDAR2B): −
- Emax (NMDAR2B): 0%

SMILES: CC(C)C(=O)N1CCCCC12CCNC2=O (stereo not drawn) [RG-609]
- B: log EC50 (NMDAR2A): −
- Emax (NMDAR2A): 0%
- B: log EC50 (NMDAR2B): −
- Emax (NMDAR2B): 0%

SMILES: CC(=O)N1CCCC12CCNC2=O (stereo not drawn) [RZ-403]
- A: % maximal [3H]MK-801 binding relative to 1 mM glycine (NMDAR2A): − (−=0)
- B: log EC50 (NMDAR2A): −
- A: % maximal [3H]MK-801 binding relative to 1 mM glycine (NMDAR2B): ++ (>100%=++)
- EC50 (NMDAR2B): < 1 nM

SMILES: CC(=O)N1CCC2(CCNC2=O)CC1 [RG-621]
- Emax (NMDAR2A): < 100%
- EC50 (NMDAR2A): < 1 nM
- Emax (NMDAR2B): > 100%
- EC50 (NMDAR2B): < 1 nM
- AUC(0-t) (IV pharmacokinetics; [2]): 6230 ng·h/mL
- clearance (IV pharmacokinetics; [2]): 5.33 mL/min/kg
- half-life (IV pharmacokinetics; [2]): 103 min
- C0 (IV pharmacokinetics; [3]): 4760 ng/mL
- Vd (IV pharmacokinetics; [2]): 0.52 L/kg
- CSF Cmax [1]: 3654.37 ng/mL
- Brain Cmax [1]: 1977.29 ng/mL
- AUC(0-t) [1, 4]: 29100 ng·h/mL
- bioavailability [1, 4]: 93%
- Tmax [1, 6]: 34.8 min
- Cmax [1, 5]: 12000 ng/mL

SMILES: CC(C)C(=O)N1CCCCC12CCNC2=O (stereo not drawn) [RG-610]
- B: log EC50 (NMDAR2A): −
- B: log EC50 (NMDAR2B): −

SMILES: O=C1NCCC12CCNCC2 [RG-603]
- Emax (NMDAR2A): < 100%
- EC50 (NMDAR2A): ≥ 1 nM
- Emax (NMDAR2B): < 100%
- EC50 (NMDAR2B): < 1 nM
- AUC(0-t) (IV pharmacokinetics; [2]): 1570 ng·h/mL
- clearance (IV pharmacokinetics; [2]): 21.1 mL/min/kg
- half-life (IV pharmacokinetics; [2]): 59.4 min
- C0 (IV pharmacokinetics; [3]): 5190 ng/mL
- Vd (IV pharmacokinetics; [2]): 0.81 L/kg
- AUC(0-t) [1, 4]: 897 ng·h/mL
- bioavailability [1, 4]: 11%
- Tmax [1, 6]: 60 min
- Cmax [1, 5]: 311 ng/mL

SMILES: CC(C)C(=O)N1CCCC12CCNC2=O (stereo not drawn) [RZ-406]
- A: % maximal [3H]MK-801 binding relative to 1 mM glycine (NMDAR2A): − (−=0)
- B: log EC50 (NMDAR2A): −
- A: % maximal [3H]MK-801 binding relative to 1 mM glycine (NMDAR2B): + (<100%=+)
- EC50 (NMDAR2B): < 1 nM
